Reference: patent publication US12544387B2, “Methods and compositions for testosterone production” (priority 2023, dated 2026)

Legend:
[1] = system: endogenous testosterone, LH, and FSH production; experiment: Example 3: hormone levels after enclomiphene; assay type: in vivo, human; conditions: 6.25 mg enclomiphene; n=1
Experimental: This example investigated the effects of administering a SERM (enclomiphene) on endogenous testosterone, LH, and FSH production.
Hormone levels were measured after administration of 6.25 mg of enclomiphene (see Table 3, n=1).

[2] = Testosterone concentration at time points after 200 mg of testosterone (FIG. 1)
Experimental: FIG. 1 is a phase diagram of the testosterone concentration in a patient at various time points after being administered 200 mg of testosterone.
Hormone levels were measured after co-administration of 200 mg of testosterone and 6.25 mg of enclomiphene for 30 days. Testosterone concentration was measured at +4 hours and +12 hours after administration. […] Testosterone concentration was measured at +4 hours after administration to capture the peak testosterone concentration (cMax) and +12 hours after administration to capture the trough testosterone concentration (cMin) to determine if endogenous testosterone suppression is prevented with the enclomiphene.

SMILES	Sex Hormone Binding Globulin [1] [nmol/L]	increase of calculated free testosterone from baseline (114 pg/mL) [1] [%]	time of testosterone peak [2] [h]	time until testosterone is out of the system [2] [h]
CCN(CC)CCOc1ccc(/C(=C(/Cl)c2ccccc2)c2ccccc2)cc1 [enclomiphene]	20	73		
C[C@]12CC[C@H]3[C@@H](CCC4=CC(=O)CC[C@@]43C)[C@@H]1CC[C@@H]2O [testosterone, 17β-hydroxy-4-androsten-3-one]			3 to 5	≤ 12
